{"source": "paper PMC9223062", "about": "“Purification and Characterization of a Dark Red Skin Related Dimeric Polyphenol Oxidase from Huaniu Apples” (Foods, 2022)", "key": {"[1]": {"system": "T1, dimeric PPO from Huaniu apple peel", "T1 construct": "gene PPO2; native, purified from fruit peel (ammonium sulfate, DEAE-sepharose, Sephadex G-200); soluble PPO; about 140 kDa by native-PAGE and SDS-PAGE, 61 kDa monomer by urea-SDS-PAGE, homodimer", "assay": "spectrophotometric oxidation assay, Lineweaver-Burk", "assay_type": "biochemical, Malus domestica", "settings": "pH 5.0 citrate phosphate buffer, 25 °C", "source_text": "spectrophotometric oxidation assay, Lineweaver-Burk on dimeric PPO from Huaniu apple peel"}, "[2]": {"system": "T1, dimeric PPO from Huaniu apple peel", "assay": "spectrophotometric oxidation assay at […] nm, Lineweaver-Burk", "assay_type": "biochemical, Malus domestica", "settings": "pH 5.0 citrate phosphate buffer, 25 °C; abstract 1.17, b44 prints 1.16"}}, "data": [{"smiles": "Cc1ccc(O)c(O)c1", "note": "[4-methylcatechol]", "values": [{"measurement": "Km", "setting": "[1]", "value": 2470, "unit": "µM"}]}, {"smiles": "Oc1cc(O)c2c(c1)O[C@H](c1ccc(O)c(O)c1)[C@@H](O)C2", "note": "[CT, (+)-catechin]", "values": [{"measurement": "Km", "setting": "[1]", "value": 4630, "unit": "µM"}]}, {"smiles": "Oc1cc(O)c2c(c1)O[C@H](c1ccc(O)c(O)c1)[C@H](O)C2", "note": "[EC, (−)-epicatechin]", "values": [{"measurement": "Km", "setting": "[2]", "value": 1170, "unit": "µM"}]}, {"smiles": "Oc1ccccc1O", "note": "[catechol]", "values": [{"measurement": "Km", "setting": "[1]; text prints 0.60", "value": 610, "unit": "µM"}]}, {"smiles": "O=C(/C=C/c1ccc(O)c(O)c1)O[C@@H]1C[C@](O)(C(=O)O)C[C@@H](O)[C@H]1O", "note": "[chlorogenic acid]", "values": [{"measurement": "Km", "setting": "[1]; text b44 prints 1.29, table value agrees with its Vmax/Km", "value": 2220, "unit": "µM"}]}]}
